From patent US9656996B2, “Fused heterocyclic compound, preparation method therefor, pharmaceutical composition, and uses thereof” (SHANGHAI YINGLI PHARMACEUTICAL CO., LTD., priority 2013, dated 2017)

Experiments:
PI3Kδ = PI3Kδ (Homo sapiens (Human), UniProt O00329); assay: PI3Kδ enzymatic inhibitory activity IC50 assay; assay type: biochemical; settings: luminescence readout, 25 μM ATP, 50 μM PIP2, 2 hours at room temperature
Procedure: (§1) 1. Buffer preparation: 50 mM HEPES, pH 7.5, 3 mM MgCl2, 1 mM EGTA, 100 mM NaCl, 0.03% CHAPS.
(§2) 2. The compound was formulated in 100% DMSO in a concentration gradient, and deposited to a 384-well plate with a final DMSO concentration of 1%.
(§3) 3. PI3Kα, PI3Kδ, PI3Kβ and PI3Kγ enzymes (purchased from EMD Millipore) were diluted to the optimal concentration with the following buffer: 50 mM HEPES, pH 7.5, 3 mM MgCl2, 1 mM EGTA, 100 mM NaCl, 0.03% CHAPS, 2 mM DTT, transferred to a 384-well plate and incubated with the compound for a certain time.
(§4) 4. The substrate was diluted to an optimal concentration with the following buffer: 50 mM HEPES, pH 7.5, 3 mM MgCl2, 1 mM EGTA, 100 mM NaCl, 0.03% CHAPS, 2 mM DTT, 50 μM PIP2, 25 μM ATP and added to the 384-well plate to initiate the reaction. PI3Kα, PI3Kβ and PI3Kγ were allowed to react for 1 h at room temperature, and PI3Kδ reacted for 2 hours at room temperature. Another 10 μL ADP-Glo Detection Reagent also needed to be added for PI3Kβ and PI3Kγ, and then equilibrated at room temperature for 30 minutes.
(§5) 5. Luminescence was read by using Flexstation, and the inhibition rate was calculated as the average value of two tests.

PI3Kα = PI3Kα (Homo sapiens (Human), UniProt P42336); assay: PI3Kα enzymatic inhibitory activity IC50 assay; assay type: biochemical; settings: selectivity ratio
Chain of PI3Kα (P42336 whole entry, species assumed): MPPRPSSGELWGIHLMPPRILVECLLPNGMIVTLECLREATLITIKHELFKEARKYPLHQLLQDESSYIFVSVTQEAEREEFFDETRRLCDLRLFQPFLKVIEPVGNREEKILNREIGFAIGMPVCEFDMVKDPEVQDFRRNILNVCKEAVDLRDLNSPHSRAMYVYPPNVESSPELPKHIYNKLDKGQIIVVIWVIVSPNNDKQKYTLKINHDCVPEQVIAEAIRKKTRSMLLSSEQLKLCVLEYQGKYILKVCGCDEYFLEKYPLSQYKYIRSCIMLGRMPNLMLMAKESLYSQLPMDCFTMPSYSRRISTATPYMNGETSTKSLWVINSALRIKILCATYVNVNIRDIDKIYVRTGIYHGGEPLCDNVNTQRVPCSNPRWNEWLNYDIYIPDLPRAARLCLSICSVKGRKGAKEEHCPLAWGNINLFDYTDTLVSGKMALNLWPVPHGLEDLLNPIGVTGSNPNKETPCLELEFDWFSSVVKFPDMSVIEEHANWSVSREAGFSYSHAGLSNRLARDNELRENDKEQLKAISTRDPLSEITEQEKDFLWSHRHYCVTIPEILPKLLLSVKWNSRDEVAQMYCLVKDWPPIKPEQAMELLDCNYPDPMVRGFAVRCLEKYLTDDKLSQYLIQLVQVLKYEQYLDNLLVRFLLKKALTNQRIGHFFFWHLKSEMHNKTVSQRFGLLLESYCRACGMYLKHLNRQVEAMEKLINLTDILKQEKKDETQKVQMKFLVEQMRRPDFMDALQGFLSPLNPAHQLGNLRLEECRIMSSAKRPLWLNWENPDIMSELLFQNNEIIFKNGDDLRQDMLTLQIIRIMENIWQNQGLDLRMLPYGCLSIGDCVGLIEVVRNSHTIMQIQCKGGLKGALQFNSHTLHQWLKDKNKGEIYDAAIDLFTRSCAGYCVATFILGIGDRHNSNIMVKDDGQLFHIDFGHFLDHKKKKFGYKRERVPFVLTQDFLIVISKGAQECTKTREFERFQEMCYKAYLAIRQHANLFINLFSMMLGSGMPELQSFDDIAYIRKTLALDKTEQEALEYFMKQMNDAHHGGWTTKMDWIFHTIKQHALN
Chain of PI3Kα (P27986 whole entry partner, species assumed): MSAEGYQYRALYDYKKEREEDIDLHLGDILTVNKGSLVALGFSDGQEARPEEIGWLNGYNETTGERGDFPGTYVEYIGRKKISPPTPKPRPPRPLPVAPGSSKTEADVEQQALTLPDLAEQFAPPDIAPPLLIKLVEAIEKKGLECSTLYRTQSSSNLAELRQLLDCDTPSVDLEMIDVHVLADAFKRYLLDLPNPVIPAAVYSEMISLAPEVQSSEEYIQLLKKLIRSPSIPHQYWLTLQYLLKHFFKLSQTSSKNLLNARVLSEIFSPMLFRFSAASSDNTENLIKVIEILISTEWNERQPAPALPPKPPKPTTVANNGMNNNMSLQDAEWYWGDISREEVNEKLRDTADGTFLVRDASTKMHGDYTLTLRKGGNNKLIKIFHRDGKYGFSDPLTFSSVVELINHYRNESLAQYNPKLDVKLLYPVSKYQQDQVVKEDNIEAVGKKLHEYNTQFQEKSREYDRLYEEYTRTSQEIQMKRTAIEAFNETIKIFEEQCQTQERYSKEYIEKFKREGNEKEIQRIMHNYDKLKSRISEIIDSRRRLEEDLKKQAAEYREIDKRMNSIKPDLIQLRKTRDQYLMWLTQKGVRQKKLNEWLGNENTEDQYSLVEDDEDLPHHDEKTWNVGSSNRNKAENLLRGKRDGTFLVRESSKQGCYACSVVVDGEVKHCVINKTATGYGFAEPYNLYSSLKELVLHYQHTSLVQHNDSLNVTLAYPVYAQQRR
Procedure: as §1, §2, §3, §4, §5

PI3Kβ = PI3Kβ (Homo sapiens (Human), UniProt P42338); assay: PI3Kβ enzymatic inhibitory activity IC50 assay; assay type: biochemical; settings: selectivity ratio
Chain of PI3Kβ (P42338 whole entry, species assumed): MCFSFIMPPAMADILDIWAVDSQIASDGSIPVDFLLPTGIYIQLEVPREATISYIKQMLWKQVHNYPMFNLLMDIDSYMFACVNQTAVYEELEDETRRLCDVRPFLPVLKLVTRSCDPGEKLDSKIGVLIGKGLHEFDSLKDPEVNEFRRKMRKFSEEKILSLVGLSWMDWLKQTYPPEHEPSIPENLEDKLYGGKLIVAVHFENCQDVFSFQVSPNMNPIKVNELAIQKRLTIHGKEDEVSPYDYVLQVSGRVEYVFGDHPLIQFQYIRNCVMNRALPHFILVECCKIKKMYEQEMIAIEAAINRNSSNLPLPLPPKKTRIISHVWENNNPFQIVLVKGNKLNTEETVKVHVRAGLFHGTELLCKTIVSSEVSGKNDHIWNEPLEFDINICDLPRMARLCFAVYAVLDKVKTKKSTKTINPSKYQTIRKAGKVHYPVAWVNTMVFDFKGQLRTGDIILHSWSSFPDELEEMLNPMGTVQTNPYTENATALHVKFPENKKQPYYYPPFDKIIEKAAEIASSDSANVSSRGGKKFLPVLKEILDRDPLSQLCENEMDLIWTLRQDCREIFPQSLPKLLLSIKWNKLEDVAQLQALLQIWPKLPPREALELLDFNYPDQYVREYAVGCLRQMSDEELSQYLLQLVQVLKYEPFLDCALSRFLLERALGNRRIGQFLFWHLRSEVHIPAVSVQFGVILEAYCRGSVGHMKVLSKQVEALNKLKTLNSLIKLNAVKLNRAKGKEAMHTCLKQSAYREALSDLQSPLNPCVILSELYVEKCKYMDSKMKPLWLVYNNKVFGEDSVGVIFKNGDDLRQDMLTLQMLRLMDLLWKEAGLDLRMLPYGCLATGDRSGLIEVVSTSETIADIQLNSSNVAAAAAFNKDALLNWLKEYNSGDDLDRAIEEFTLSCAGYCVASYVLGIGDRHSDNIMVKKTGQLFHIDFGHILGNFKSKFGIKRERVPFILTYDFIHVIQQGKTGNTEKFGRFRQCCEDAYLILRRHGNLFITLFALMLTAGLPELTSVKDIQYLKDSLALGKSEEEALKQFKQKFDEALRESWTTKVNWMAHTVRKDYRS
Chain of PI3Kβ (P27986 whole entry partner, species assumed): as the sequence (P27986 whole entry partner, species assumed) above
Procedure: as §1, §2, §3, §4, §5

PI3Kγ = PI3Kγ (Homo sapiens (Human), UniProt P48736); assay: PI3Kγ enzymatic inhibitory activity IC50 assay; assay type: biochemical; settings: selectivity ratio
Chain of PI3Kγ (P48736 whole entry, species assumed): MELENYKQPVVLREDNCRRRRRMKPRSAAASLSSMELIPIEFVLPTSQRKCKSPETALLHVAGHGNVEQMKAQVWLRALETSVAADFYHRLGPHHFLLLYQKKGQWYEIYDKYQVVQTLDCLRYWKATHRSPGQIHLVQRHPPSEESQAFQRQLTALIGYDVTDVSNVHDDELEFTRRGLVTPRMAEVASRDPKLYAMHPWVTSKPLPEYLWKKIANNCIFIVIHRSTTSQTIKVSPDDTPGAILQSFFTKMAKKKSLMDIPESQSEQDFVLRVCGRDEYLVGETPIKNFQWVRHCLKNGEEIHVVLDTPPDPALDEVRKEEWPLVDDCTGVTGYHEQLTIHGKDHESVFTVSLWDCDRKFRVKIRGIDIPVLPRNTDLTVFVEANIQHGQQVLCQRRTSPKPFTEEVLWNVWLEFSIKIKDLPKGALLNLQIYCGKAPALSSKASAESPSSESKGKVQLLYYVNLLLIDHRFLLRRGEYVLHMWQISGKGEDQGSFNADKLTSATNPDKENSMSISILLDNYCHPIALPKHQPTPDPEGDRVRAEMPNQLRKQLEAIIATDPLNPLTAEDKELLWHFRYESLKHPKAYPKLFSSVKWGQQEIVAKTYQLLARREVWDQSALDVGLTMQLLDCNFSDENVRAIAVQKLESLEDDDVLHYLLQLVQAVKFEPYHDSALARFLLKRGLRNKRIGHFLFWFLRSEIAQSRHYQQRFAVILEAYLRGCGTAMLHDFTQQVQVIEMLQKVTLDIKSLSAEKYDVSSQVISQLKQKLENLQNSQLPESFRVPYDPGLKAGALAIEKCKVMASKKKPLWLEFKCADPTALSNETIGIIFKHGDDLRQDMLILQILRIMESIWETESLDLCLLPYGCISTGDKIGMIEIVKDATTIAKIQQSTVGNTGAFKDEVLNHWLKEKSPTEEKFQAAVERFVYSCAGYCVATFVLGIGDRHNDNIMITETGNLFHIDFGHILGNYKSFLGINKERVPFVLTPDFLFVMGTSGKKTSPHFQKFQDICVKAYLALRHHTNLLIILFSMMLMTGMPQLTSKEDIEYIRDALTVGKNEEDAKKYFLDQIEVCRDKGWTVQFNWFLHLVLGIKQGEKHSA
Procedure: as §1, §2, §3, §4, §5

[1] = system: Raji cell TNF-α generation; assay: Inhibition of human Raji cell TNF-α generation induced by human IgM (ELISA); assay type: cell-based; settings: Raji cells, IgM stimulation, 24 hours
Procedure: 1. Raji cell line (human Burkitt's lymphoma origin) (ATCC, Cat#CCL-86) was used.
2. Raji cells were applied onto the 96-well plate with 1×10^5/well.
3. The compounds to be screened were diluted to the corresponding test concentration, and added to the cell culture system 30 minutes prior to IgM stimulation.
4. 10 µg/ml IgM monoclonal antibody (JACKSON, Cat#109-006-129) was added to the cell culture system in order to stimulate the cells generating TNF-α.
5. After 24 hours, the amount of TNF-α produced by the cell line was determined by ELISA.
6. The inhibition rates at each concentration of the compound were calculated and plotted to calculate 50% inhibition rate (IC50), and the specific results were shown in table 3.

Chain of PI3Kδ (O00329 whole entry, species assumed): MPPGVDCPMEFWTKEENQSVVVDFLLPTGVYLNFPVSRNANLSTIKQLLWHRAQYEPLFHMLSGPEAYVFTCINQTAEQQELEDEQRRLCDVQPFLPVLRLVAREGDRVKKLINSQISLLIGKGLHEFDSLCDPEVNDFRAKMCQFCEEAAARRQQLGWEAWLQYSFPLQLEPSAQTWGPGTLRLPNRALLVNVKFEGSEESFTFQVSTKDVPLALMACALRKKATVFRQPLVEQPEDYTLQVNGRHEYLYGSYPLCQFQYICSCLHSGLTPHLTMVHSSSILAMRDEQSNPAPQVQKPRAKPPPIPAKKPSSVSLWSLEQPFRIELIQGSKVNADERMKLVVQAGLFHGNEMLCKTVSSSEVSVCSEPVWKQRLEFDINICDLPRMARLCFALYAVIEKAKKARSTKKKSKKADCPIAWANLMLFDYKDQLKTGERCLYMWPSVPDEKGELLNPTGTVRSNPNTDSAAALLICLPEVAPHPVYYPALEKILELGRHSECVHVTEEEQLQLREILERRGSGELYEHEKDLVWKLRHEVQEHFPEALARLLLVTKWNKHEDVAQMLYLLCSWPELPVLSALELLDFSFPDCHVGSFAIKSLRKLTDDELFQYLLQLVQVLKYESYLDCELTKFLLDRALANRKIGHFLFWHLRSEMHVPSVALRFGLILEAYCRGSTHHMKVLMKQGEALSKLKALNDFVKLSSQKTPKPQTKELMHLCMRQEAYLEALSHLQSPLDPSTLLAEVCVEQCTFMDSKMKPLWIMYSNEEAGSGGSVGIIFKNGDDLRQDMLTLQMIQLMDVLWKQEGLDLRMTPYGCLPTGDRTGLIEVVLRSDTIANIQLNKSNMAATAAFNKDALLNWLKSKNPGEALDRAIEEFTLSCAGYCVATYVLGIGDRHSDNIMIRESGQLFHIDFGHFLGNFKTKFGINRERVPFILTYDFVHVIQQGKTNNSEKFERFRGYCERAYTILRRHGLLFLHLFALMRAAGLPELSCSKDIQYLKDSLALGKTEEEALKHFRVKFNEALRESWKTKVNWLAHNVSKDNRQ
Chain of PI3Kδ (P27986 whole entry partner, species assumed): as the sequence (P27986 whole entry partner, species assumed) above

For COc1ncc(-c2nc(N3CCOCC3)nc3c(OC4CCC(N5CCCCC5)CC4)cc(F)cc23)cc1NS(C)(=O)=O (centres unmarked) [Compound 36], the IC50 (PI3Kδ) was 17 nM, the “α/δ (ratio of IC50 values against PI3Kα to PI3Kδ)” value (PI3Kα) was 239 and the “β/δ (ratio of IC50 values against PI3Kβ to PI3Kδ)” value (PI3Kβ) was 366. For the same molecule, the “γ/δ (ratio of IC50 values against PI3Kγ to PI3Kδ)” value (PI3Kγ) was over 588 and the IC50 [1] was 27 nM.
